The assay deals with Protein kinase C alpha type (Homo sapiens, UniProt P17252). The assay is described as follows: Binding affinity for Protein kinase C alpha C1a or C1b domain.

For `CC(C)CC(C/C=C1\CC(CO)(CN(O)C(=O)C(C)(C)C)OC1=O)CC(C)C` (configuration not stated), the inhibitory constant (Ki) (commonly a dissociation constant, usually derived from enzyme kinetics or from competition with a known ligand) amounted to 6.79 µM. As to `CC(C)CC(C/C=C1/CC(CO)(CN(O)C(=O)C(C)(C)C)OC1=O)CC(C)C` (configuration not stated), the Ki came to 6.98 µM.

The values are drawn from ChEMBL document CHEMBL1145817, “Conformationally constrained analogues of diacylglycerol. 19. Synthesis and protein kinase C binding affinity of diacylglycerol lactones bearing an N-hydroxylamide side chain” (J Med Chem, 2003).
